Results taken from paper PMC6930223 (Scientific Reports, 2019).

What was measured:
Type in all cases: cell-based, human
[1] = system: hERG1b protein (fg 95 kDa, cg 80 kDa); assay: Western blot protein expression in HEK293-hERG1a/1b cells; conditions: all concentrations, 24 h
Description: (§1) Total protein was isolated using RIPA lysis buffer system (Santa Cruz Biotechnology, Inc., USA). Equal amounts of protein samples were loaded onto 7.5% (v/v) polyacrylamide gels and were subsequently transferred to Immobilon®-P PVDF membrane (Millipore, USA) using Trans-Blot® Turbo™ Blotting System (Bio-Rad Laboratories, USA). Blots were blocked with 3% (w/v) skim milk for 1 h and probed with optimized primary antibodies against hERG1a (1:5000), hERG1b (1:1250), Hsp70 (1:10, 000), Hsp90 (1:5000) and β-actin (1:5000) overnight at 4 °C. Finally, the blots were then incubated in horseradish peroxidase (HRP) conjugated secondary antibody (1:1000) for 2.5 h followed by Clarity™ Western ECL substrate (Bio-Rad Laboratories, USA). The antibodies used for Western blotting were rabbit hERG1a polyclonal antibody (Enzo Life Sciences, USA), rabbit hERG1b polyclonal antibody (Enzo Life Sciences, USA), rabbit Hsc70/Hsp70 polyclonal antibody (Enzo Life Sciences, USA), rabbit Hsp90 polyclonal antibody (Enzo Life Sciences, USA), rabbit β-actin antibody (Cell Signaling, USA) and anti-rabbit IgG HRP-linked antibody (Cell Signaling, USA). Chemiluminescence signal was detected using ChemiDoc™ XRS Imaging System (Bio-Rad Laboratories, USA). Band densities were scanned and quantified using Image Lab Software (Bio-Rad Laboratories, USA). The signal for each protein band was normalized to the reference protein, β-actin. Experiments were conducted in duplicate and represented as mean fold changes of three independent experiments.

[2] = system: hERG1a protein (fg 155 kDa, cg 135 kDa); assay: as above; conditions: 24 h
Description: as §1

[3] = system: hERG1a/Hsp70 complexes; assay: Co-immunoprecipitation of cg-hERG1a with chaperone; conditions: 24 h
Description: (§2) The co-immunoprecipitation method was adapted and modified slightly from the previously described methodologies[40],[52]. The treated recombinant cells were incubated for 15 min at room temperature with PBS containing cross-linker 1.5 mM dithiobis (succinimidyl propionate) (DSP, Pierce USA). The cross-linker was quenched by addition of 10 mM Tris (pH 7.5) and incubated for 10 min at room temperature. Cells were detached in 10 ml ice-cold PBS and centrifuged at 300 x g for 5 min at 4 °C. The pellet was then resuspended in 300 µl ice-cold complete diluted RIPA lysis buffer containing 0.1% (v/v) NP40, 50 mM Tris pH 7.5, 150 mM NaCl, 1x PMSF solution, 1x sodium orthovanadate solution and 1x protease inhibitor cocktail solution. Subsequently, the cell suspension was incubated at 4 °C for 30 min with constant agitation and finally centrifuged at 14, 000 rpm for 10 min at 4 °C. The supernatant was saved for total protein quantitation and subsequently for co-immunoprecipitation experiments.
(§3) Briefly, 500 µg of isolated total protein was mixed with 2 µg of hERG1 rabbit polyclonal IgG (Santa Cruz Biotechnology Inc., USA), mouse Hsp70/Hsc70 monoclonal antibody (Santa Cruz Biotechnology Inc., USA) or mouse Hsp90α/β monoclonal antibody (Santa-Cruz Biotechnology Inc., USA) respectively and incubated on ice on a rotary shaker overnight. Subsequently, 30 µl of protein A/G PLUS-agarose immunoprecipitation reagent (Santa Cruz Biotechnology Inc., USA) was added into the mixture, and incubated on ice on a shaker for 8 h and subsequently stored in 4 °C overnight. The mixture was centrifuged at 1500 rpm for 5 min at 4 °C, and the pellet was washed with ice-cold PBST, each time repeating the centrifugation process. Finally, the pellet was resuspended in 25 µl 1x Laemmli sample buffer (Bio-Rad Laboratories Inc., USA) with 2.5% (v/v) β-mercaptoethanol, and then heated at 70 °C for 2 h to reverse cross-linking and to release the immunoprecipitated protein from A/G PLUS-agarose beads. The samples were centrifuged at 1500 rpm for 5 min at 4 °C to pellet the agarose beads and 20 µl of the supernatant was used for subsequent SDS-PAGE and immunoblotting analysis as described previously.
(§4) To analyze the immunoprecipitated proteins, the membrane was probed with rabbit anti-potassium channel Kv11.1 extracellular antibody (1:200) (Sigma-Aldrich, USA), mouse Hsp70/Hsc70 monoclonal antibody (1:10, 000) and mouse Hsp90α/β monoclonal antibody (1:10, 000) in the same container. […] To quantify hERG1/chaperone interactions, image densities of the core-glycosylated (cg) hERG1 protein found in immunoprecipitations with anti-hERG1 antibody were used as a measure of total hERG1a protein present. […]

[4] = system: hERG1a/Hsp90 complexes; assay: Co-immunoprecipitation of cg-hERG1a with chaperone; conditions: 10 µM, 24 h, vs untreated control
Description: as §2, §3, §4

mitragynine
cg-hERG1b protein expression [1]: no significant changes
fg-hERG1b protein expression [1]: no significant changes
increase of cg-hERG1a expression ([2]; 10 µM, vs untreated control): ~50%
reduction of fg-hERG1a expression ([2]; 10 µM, vs untreated control): approximately 22.3%
expression of cg-hERG1a ([2]; 0.001–1 µM): unaffected
protein expression of fg-hERG1a ([2]; 0.001–1 µM): no clear pattern
association of hERG1a/Hsp70 ([3]; 1 µM): not significantly affected
association of hERG1a/Hsp70 ([3]; 10 μM): not significantly affected
relative expression of hERG1a/Hsp90 complexes [4]: significantly increased
up-regulation of hERG1a interacting with Hsp90 [4]: approximately 2.5 fold
